Assay results taken from article PMC8406809 (Antimicrobial Agents and Chemotherapy, 2021).

Key:
[1] = test system: Huh7.5 cells; assay type: cell-based, human; details: higher concentrations marked # in Fig. 4A
[2] = test system: original-SARS2 (P2VeroE6 virus, SARS-CoV-2_DK-AHH1); assay: microbe, parasite or virus in culture; assay type: cell-based

Row | Structure (SMILES) | cytotoxicity [1] | fold-higher activity in Huh7.5 cells than in Vero E6 cells [2] [fold] | EC50 ([2]; Severe acute respiratory syndrome coronavirus 2, Huh7.5) [nM]
1 | COc1c(NC(=O)C(=O)c2ccc(OCCN3CCOCC3)c3ccccc23)cc(C(C)(C)C)cc1NS(C)(=O)=O [ITX5061] | cytotoxic | – | –
2 | CCC(CC)COC(=O)[C@H](C)N[P@](=O)(OC[C@H]1O[C@@](C#N)(c2ccc3c(N)ncnn23)[C@H](O)[C@@H]1O)Oc1ccccc1 [Remdesivir] | – | ~50 | 30
